Where two headings read alike, the source gives them in different places.
How the values were obtained:
leukemia cells = assay: Biological activity of Piper betel HPLC zones and peaks: destruction of leukemic cells; assay type: cell-based; conditions: HPLC zones and peaks of Fraction E of Piper betel leaf extract
From the text: Collected material was examined for biological activity i.e. destruction of leukemic cells. […] 10 gm of above-mentioned material was loaded on Sephadex LH-20 column and chromatographed with water, water-methanol (1:1) and methanol as eluent. Three different fractions thus obtained from three different solvent systems were separately checked for biological activity. The activity was located only on
Fraction 2 i.e. Methanol-water (1:1) and termed as fraction E. Fraction E was then subjected to HPLC analysis using Intersil ODS-3 analytical column. The column was equilibrated with methanol-water-acetic acid (23:76:1), flow rate was maintained at 1.0 ml per min and peaks were identified at 280 nm. According to the retention time (RE) different peaks could be divided into three zones, ZA, ZB and ZC (FIG. 1). ZA had 4 major peaks whereas ZB had very small to moderate 10 peaks and ZC had two distinct peaks. It was convenient to observe biological activity of three zones AA, ZB and ZC, which were separately tested on leukemia cells for destructive activity.
The Zone ZB contained 10 peaks (1 to 10) of varied sizes. […] For this reason all different peaks were separately monitored for biological activity. […] On searching for activity of these peaks i.e. 1,5,6,7,9 and 10 corresponding to Rt 5.16, 8.34, 9.16, 9.86, 13.94 and 14.68 respectively. […]

[1] = test system: CML Patient's Leukemic cells; assay: Analysis of cell cycle progression and apoptosis by Flow cytometry (propidium iodide); assay type: cell-based, human; conditions: 100.0 μg/ml; two days of culture
Experimental: Analysis of cell cycle progression and apoptosis by Flow cytometry PBMC of a CML patient was cultured in RPMI-1640 medium supplemented with 10% […] fetal bovine serum in the presence or absence of CA (100.0 μg/ml) for 48 hr. at 37° C. in 5% CO2. Cells were fixed with 40% ethanol treated with 500 μg/ml Rnase A, and then with 69 μM propidium iodide for analysis of DNA content by Flow Cytometry as described (Mitra et al., Molecular Medicine, 6:527-541, 2000).

[2] = test system: Molt 4 (T lymphoid Cell line); assay: Growth inhibition of T lymphoid cell line Molt 4 by CA in vitro; assay type: cell-based; conditions: Homo sapiens, 1 × 10^5 cells per ml per well, read-out: Percentage Inhibition of Cell Growth; for inhibition at 50 µg/mL: CA 50.0 μg/ml; for inhibition at 100 µg/mL: CA 100.0 μg/ml; for inhibition at 200 µg/mL: CA 200.0 μg/ml
From the text: Culture of T-Lymphoid cell line Molt-4. This cell line was obtained from American Type culture collection (ATCC), VA, USA and grown in vitro as described for the cell line K562.

[3] = test system: U937 Promonocyte cell line; assay: CA, PCQ and combination: growth inhibition of U937 (2×10^6 cells per ml per well); assay type: cell-based, human; conditions: for percentage growth inhibition of promonocyte cells: concentration not given
CML patient's PBMC = assay: Incubation of CML patient's PBMC with CA, viable cell count (growth inhibition); assay type: cell-based, human; conditions: PBMC / leukemic cells of CML patient
Experimental: Whole blood (10 ml each) was drawn from previously diagnosed myeloid leukemic patients, one patient was diagnosed as AML and the other one was diagnosed as CML. Mononuclear cells were separated by Ficoll/hypaque density gradient centrifugation. PBMC (1×10^5-2×10^6/ml) of myeloid leukemia patients were incubated with varied concentrations of CA for 48 hours at 37° C. in 5% CO2. Cells were then washed and counted for viability.

[4] = test system: CML Patient's Leukemic cells; assay: CA, PCQ and combination: growth inhibition of CML patient's leukemic cells (2×10^6 cells per ml per well); assay type: cell-based, human; conditions: for percentage growth inhibition of CML's leukemic cells: concentration not given
[5] = test system: K 562 Erythroleukemia cell line; assay: CA, PCQ and combination: growth inhibition of K562 (2×10^6 cells per ml per well); assay type: cell-based, human; conditions: for percentage growth inhibition of Erythroleukemia cells: concentration not given
Normal individual's PBMC = assay: CA, PCQ and combination: growth inhibition of normal individual's PBMC (2×10^6 cells per ml per well); assay type: cell-based, human
From the text: Preparation of peripheral blood mononuclear cells (PBMC) from normal individuals. Whole blood was collected and mononuclear cells were separated by Ficoll/Hypaque density gradient centrifugation.
The number of cells used was 2×10^6 per ml per well.

`O=C(/C=C/c1ccc(O)c(O)c1)O[C@@H]1C[C@](O)(C(=O)O)C[C@@H](O)[C@H]1O` (single isomer, unassigned) [CA, Chlorogenic acid] was tested, and the “biological activity i.e. destruction of leukemic cells (in words)” value (leukemia cells) was “detectable activity”, the “apoptosis in CML patients Leukemic cells in vitro (cell-cycle analysis)” value [1] was “caused apoptosis” and the inhibition at 50 µg/mL ([2]; 24 h, 1 day) was 3.57%. It also gave an inhibition at 100 µg/mL ([2]; 24 h, 1 day) of 6.89%, an inhibition at 200 µg/mL ([2]; 24 h, 1 day) of 13.8% and an inhibition at 50 µg/mL ([2]; 48 h, 2 days) of 6.67%. The inhibition at 100 µg/mL ([2]; 48 h, 2 days) was 14.7%, the inhibition at 200 µg/mL ([2]; 48 h, 2 days) was 46.7% and the inhibition at 100 µg/mL ([2]; 72 h, 3 days) was 18.8%. For the same compound, the inhibition at 25 µg/mL ([3]; Homo sapiens, U-937, 24 h, U937, single compound 25.0 μg/ml, 1 day, 2×10^6 cells per ml per well, read-out: % Inhibition of cell growth (After 1 day of incubation)) was ≤ 16.7%, the “percentage growth inhibition of promonocyte cells” value [3] was “about 25%” and the “destruction of cells (in words)” value (CML patient's PBMC) was “destroyed”. The inhibition at 25 µg/mL ([4]; Homo sapiens, 24 h, CML patient's leukemic cells, single compound 25.0 μg/ml, 1 day, 2×10^6 cells per ml per well, read-out: % Inhibition of cell growth (After 1 day of incubation)) was ≤ 2.38%, the inhibition at 50 µg/mL ([4]; Homo sapiens, 24 h, CML patient's leukemic cells, single compound 50.0 μg/ml, 1 day, 2×10^6 cells per ml per well, read-out: % Inhibition of cell growth (After 1 day of incubation)) was 4.67% and the “percentage growth inhibition of CML's leukemic cells” value [4] was “about 5%”. The “percentage growth inhibition of Erythroleukemia cells” value [5] was “about 30%”.
With `O=C(C=Cc1ccc(O)cc1)OC1CC(O)(C(=O)O)CC(O)C1O` (stereo not shown) [PCQ, 3-o-p-Coumaryl quinic acid] the “biological activity i.e. destruction of leukemic cells (in words)” value (leukemia cells) was “demonstrated considerable activity”, the “% Inhibition of cell growth (After 1 day of incubation)” value (“% Inhibition of cell growth” for short) (Normal individual's PBMC; single compound 25.0 μg/ml) was 0.00% and the “% Inhibition of cell growth” value (Normal individual's PBMC; single compound 50.0 μg/ml) was 1.67%. For the same compound, the “% Inhibition of cell growth” value ([3]; U937, single compound 50.0 μg/ml, 1 day, 2×10^6 cells per ml per well) was 4.17%, the “percentage growth inhibition of promonocyte cells” value [3] was “about 5%” and the “% Inhibition of cell growth” value ([4]; CML patient's leukemic cells, single compound 50.0 μg/ml, 1 day, 2×10^6 cells per ml per well) was 4.67%. The “percentage growth inhibition of CML's leukemic cells” value [4] was “about 5%”, the “% Inhibition of cell growth” value ([5]; K 562, single compound 50.0 μg/ml, 1 day, 2×10^6 cells per ml per well) was 8.00% and the “percentage growth inhibition of Erythroleukemia cells” value [5] was “about 8%”.
